In the supplement of paper PMC5908809:

Assays:
[1] = test system: normal NK cells expanded with K562-aAPC; experiment: percent inhibition of viability; higher = more inhibition; details: 72 h, IL-2 2.5 ng/mL
Protocol: (§1)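 Drug sensitivity and resistance testing on K562-aAPC-expanded normal NK cells: 5 concentrations (10-fold steps over a 10,000-fold range), 72 h at 37 °C, viability by CellTiter-Glo normalised to DMSO and benzethonium chloride controls; DSS from the fitted curve.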

DERL-7 (IL-2 2.5 ng/mL) [2] = experiment: as above; details: 72 h
IMC-1 (IL-2 20 ng/mL) [3] = experiment: as above; details: 72 h
KAI3 (IL-2 2.5 ng/mL) [4] = experiment: as above; details: 72 h
KHYG-1 (IL-2 2.5 ng/mL) [5] = experiment: as above; details: 72 h
NK-92 (IL-2 2.5 ng/mL) [6] = experiment: as above; details: 72 h
NK-YS (IL-2 2.5 ng/mL) [7] = experiment: as above; details: 72 h
NKL (IL-2 2.5 ng/mL) [8] = experiment: as above; details: 72 h
SNK-6 (IL-2 2.5 ng/mL) [9] = experiment: as above; details: 72 h
YT (IL-2 2.5 ng/mL) [10] = experiment: as above; details: 72 h
[11] = test system: normal primary NK cells, pool 1 (3 donors) (IL-2 2.5 ng/mL); experiment: as above; details: 72 h
[12] = test system: normal primary NK cells, pool 1 (3 donors), resting (IL-2 0 ng/mL); experiment: as above; details: 72 h
[13] = test system: normal primary NK cells, pool 2 (3 donors) (IL-2 2.5 ng/mL); experiment: as above; details: 72 h
[14] = test system: normal primary NK cells, pool 3 (3 donors) (IL-2 2.5 ng/mL); experiment: as above; details: 72 h
[15] = test system: normal NK cells expanded with K562-aAPC; experiment: drug sensitivity score (DSS) (DSS units); higher = more sensitive; extreme values may be limits of the assay; details: 72 h; IL-2 2.5 ng/mL
Protocol: as §1

DERL-7 (IL-2 2.5 ng/mL) [16] = experiment: as above; details: 72 h
IMC-1 (IL-2 20 ng/mL) [17] = experiment: as above; details: 72 h
KAI3 (IL-2 2.5 ng/mL) [18] = experiment: as above; details: 72 h
KHYG-1 (IL-2 2.5 ng/mL) [19] = experiment: as above; details: 72 h
NK-92 (IL-2 2.5 ng/mL) [20] = experiment: as above; details: 72 h
NK-YS (IL-2 2.5 ng/mL) [21] = experiment: as above; details: 72 h
NKL (IL-2 2.5 ng/mL) [22] = experiment: as above; details: 72 h
SNK-6 (IL-2 2.5 ng/mL) [23] = experiment: as above; details: 72 h
YT (IL-2 2.5 ng/mL) [24] = experiment: as above; details: 72 h
[25] = test system: normal primary NK cells, pool 1 (3 donors) (IL-2 2.5 ng/mL); experiment: as above; details: 72 h
[26] = test system: normal primary NK cells, pool 1 (3 donors), resting (IL-2 0 ng/mL); experiment: as above; details: 72 h
[27] = test system: normal primary NK cells, pool 2 (3 donors) (IL-2 2.5 ng/mL); experiment: as above; details: 72 h
[28] = test system: normal primary NK cells, pool 3 (3 donors) (IL-2 2.5 ng/mL); experiment: as above; details: 72 h

CCNC(=O)CCC/C=C\C[C@@H]1[C@@H](/C=C/[C@@H](O)CCc2ccccc2)[C@H](O)C[C@@H]1O [Bimatoprost] (max concentration tested 5500 nM)
percent inhibition of viability [%]
Details | 0.55 nM | 5.5 nM | 55 nM | 550 nM | 5500 nM
DERL-7 (IL-2 2.5 ng/mL) [2] | -5.3 | -2.53 | -3.35 | -10.4 | -4.94
IMC-1 (IL-2 20 ng/mL) [3] | -1.84 | -3.91 | -0.72 | -4.98 | -0.62
KAI3 (IL-2 2.5 ng/mL) [4] | -9.15 | -10.1 | -8.67 | -6.35 | -7.76
KHYG-1 (IL-2 2.5 ng/mL) [5] | -6.16 | -6.81 | -5.76 | -5.66 | -2.75
NK-92 (IL-2 2.5 ng/mL) [6] | -8.7 | -4.9 | -11.6 | -5.65 | -8.03
NK-YS (IL-2 2.5 ng/mL) [7] | -3.18 | -8.08 | -6.49 | -9.97 | -6.34
NKL (IL-2 2.5 ng/mL) [8] | -10.6 | -7.92 | -13.9 | -14.1 | 7.05
SNK-6 (IL-2 2.5 ng/mL) [9] | 17.6 | 0.29 | 2.65 | -15.2 | -3.36
YT (IL-2 2.5 ng/mL) [10] | -1.68 | -3.7 | -5.41 | -3.35 | -5.44
[1] | -0.32 | -7.8 | -7.43 | -6.39 | -7.75
[11] | -4.1 | -2.93 | -7.66 | 5.27 | 3.45
[12] | 5.81 | -2 | -9.81 | 4.1 | 6.67
[13] | -11.3 | -11.2 | -11.5 | -10.1 | -6.11
[14] | -15.9 | -13.5 | -18 | -10.8 | -6.94

Details | drug sensitivity score
DERL-7 (IL-2 2.5 ng/mL) [16] | 0.89
IMC-1 (IL-2 20 ng/mL) [17] | 0.89
KAI3 (IL-2 2.5 ng/mL) [18] | 0.89
KHYG-1 (IL-2 2.5 ng/mL) [19] | 0.89
NK-92 (IL-2 2.5 ng/mL) [20] | 0.89
NK-YS (IL-2 2.5 ng/mL) [21] | 0.89
NKL (IL-2 2.5 ng/mL) [22] | 0
SNK-6 (IL-2 2.5 ng/mL) [23] | 0
YT (IL-2 2.5 ng/mL) [24] | 0.89
[15] | 0.89
[25] | 0
[26] | 0
[27] | 0.89
[28] | 0.89

Cn1cc(CNCC2CCN(c3ncc(C(=O)NO)cn3)CC2)c2ccccc21 [Quisinostat] (max concentration tested 1000 nM)
percent inhibition of viability [%]
Details | 0.1 nM | 1 nM | 10 nM | 100 nM | 1000 nM
DERL-7 (IL-2 2.5 ng/mL) [2] | 4.2 | 1.75 | 46.9 | 99.6 | 99.1
IMC-1 (IL-2 20 ng/mL) [3] | -4.98 | -0.52 | -8.31 | 99.6 | 99.7
KAI3 (IL-2 2.5 ng/mL) [4] | -2.72 | 8.43 | 36.8 | 88.8 | 97.3
KHYG-1 (IL-2 2.5 ng/mL) [5] | -1.89 | -1.8 | 12.5 | 99.3 | 97.8
NK-92 (IL-2 2.5 ng/mL) [6] | -10.6 | -6.5 | 15.2 | 70.9 | 93.4
NK-YS (IL-2 2.5 ng/mL) [7] | -1.23 | 0.57 | 20.6 | 92.9 | 97.7
NKL (IL-2 2.5 ng/mL) [8] | -9.03 | -1.25 | 43.9 | 99.4 | 96.7
SNK-6 (IL-2 2.5 ng/mL) [9] | 1.8 | 20.8 | -18.7 | 56.4 | 99.2
YT (IL-2 2.5 ng/mL) [10] | 0.16 | -4.15 | 0.59 | 77.7 | 97.8
[1] | -4.41 | 2.67 | 27.3 | 98.9 | 99.5
[11] | -12.9 | 4.2 | 58.6 | 97.3 | 96.1
[12] | -8.56 | 21.3 | 79 | 90.3 | 90
[13] | -0.78 | 3.43 | 67.6 | 93.8 | 93.9
[14] | -2.24 | -1.5 | 32.9 | 96.6 | 97.4

Details | drug sensitivity score
DERL-7 (IL-2 2.5 ng/mL) [16] | 23.7
IMC-1 (IL-2 20 ng/mL) [17] | 17.2
KAI3 (IL-2 2.5 ng/mL) [18] | 20.6
KHYG-1 (IL-2 2.5 ng/mL) [19] | 19.9
NK-92 (IL-2 2.5 ng/mL) [20] | 15.1
NK-YS (IL-2 2.5 ng/mL) [21] | 19.7
NKL (IL-2 2.5 ng/mL) [22] | 23.6
SNK-6 (IL-2 2.5 ng/mL) [23] | 12.2
YT (IL-2 2.5 ng/mL) [24] | 14.3
[15] | 21.9
[25] | 24.6
[26] | 28.6
[27] | 25.2
[28] | 22.2
